Measurements: US20160039852A1, “THERAPEUTIC USES OF BISPHOSPHONATES” (THE UNIVERSITY OF SHEFFIELD, priority 2013, published 2016)
“Also recorded” adds a separate entry of the source.

Tests used:
[1] = tested on: murine tissues; experiment: Immuno-staining of γH2AX in murine tissue following irradiation; assay type: in vivo, C57BL6/J mice; details: 3Gy irradiation, Zol 125 μg/kg i.p. for 3 days, 12 h post irradiation
Excerpt: Cells were viewed using in an Inverted Zeiss LSM 510 NLO microscope equipped with Argon (Ar) laser (488 nm) 30 mW to image the fluorescent marker FITC and UV lamp to image DAPI stained nuclei.

[2] = tested on: 5T33 Multiple Myeloma line; experiment: γH2AX DNA damage foci in 5T33 multiple myeloma line after irradiation; assay type: cell-based, murine; details: 1 μM Zol for 3 days prior to 1Gy, γH2AX 4 h later
Procedure: 5T33MM were exposed to 1 μM Zol for 3 days prior to irradiation at 1Gy and assessment of γH2AX 4 h later (Zol). UI, are hMSC non irradiated, PBS, are hMSC irradiated in absence of Zol. Data are expressed as mean±SEM and were analysed by one way ANOVA and Bonferroni post-test for multiple comparison *p<0.05, **p<0.01, ***p<0.001
DNA damage was induced by exposing hMSC to ^137Cs Gamma source. Cells were washed with PBS and fixed with 4% Para-formaldehyde for 15mins. Cells were then washed with PBS permeabilized with 0.5% Triton-X (Sigma, UK) for 2mins and blocked with 5% normal goat serum (DAKO, Glostrup, Denmark) in PBS for 1 hr. This was followed by incubation with primary antibody, anti-phospho histone H2AX (Ser139) (Millipore, Massachusetts, USA) used at 1:800 in 5% normal goat serum, overnight at 4° C. Cells were then washed in PBS and incubated in secondary Anti mouse IgG Fluorescein Isothiocyanate (FITC) conjugated (Insight Biotechnology, Santa Cruz, USA) at 1:200 in PBS for 1 hour at room temperature. The cover-slips were mounted on slides with mounting media (VectaShield) containing 4′,6-diamidino-2-phenylindole (DAPI) to stain the nuclei. […] Five to seven fields consisting of 25 cells in total were randomly selected from a tile scan (20×) and individual cells viewed at 63× were then scored for γH2AX DNA damage foci using ImageJ 1.45 software (http://rsbweb.nih.gov/ij/).

[3] = tested on: murine multiple myeloma line, 5TGM1; experiment: γH2AX DNA damage foci in 5TGM1 multiple myeloma line after irradiation; assay type: cell-based; details: irradiated in presence versus absence of Zol, 4 h after irradiation, n=3
[4] = tested on: normal human dermal fibroblasts; experiment: γH2AX DNA damage foci in human dermal fibroblasts after irradiation; assay type: cell-based; details: 1Gy, Zol (1 μM)
Procedure: (B) Number of yH2AX DNA damage foci in human dermal fibroblasts (n=4 cultures) not irradiated (UI) or exposed to irradiation (IR) 1Gy in the presence or absence of Zol (1 μM) and with the addition of Farnesol (FOH) or geranylgeraniol (GGOH).

[5] = tested on: normal human dermal fibroblasts; experiment: Human dermal fibroblast growth, cumulative population doublings; assay type: cell-based
Excerpt: Cultures (n=3) grown in PBS senesced after 17-21 population doublings (PDs) (square symbols) whereas cultures grown in presence of Zol were still proliferating after 27-34 PDs (triangle symbols).

[6] = tested on: human mesenchymal stem cells (hMSC); experiment: Colony Forming Unit-Fibroblast assay (CFU-F), clonogenic ability of hMSC; assay type: cell-based; details: 14 days, listed as Zol
Procedure: Human MSC from established cultures were plated at 10 cells/cm^2 in duplicates in MSC medium. The plates were incubated for 14 days at 37° C. in 5% carbon dioxide in air. At day 14 cultures were stained with Wright's Giemsa stain (VWR International, Leicestershire, UK). Briefly, media was aspirated and the plates were washed with PBS (Gibco). The plates were air dried for 5 minutes and fixed with methanol (Fisher Scientific, Loughborough, UK) for 5 minutes. Wright's Geimsa stain (VWR International) was thereafter added to the plates for 5 minutes and then plates were washed under running tap water. The purple stained colonies were counted using an inverted light microscope (Leica Microsystems, UK). Colonies containing a minimum of 50 cells were considered as one Colony forming unit-fibroblast (CFU-F).

[7] = tested on: zebrafish embryo caudal fin; experiment: Zebrafish tail amputation and regeneration following irradiation; assay type: in vivo, Zebrafish (Danio Rerio H)
Procedure: Embryos from wild-type Zebrafish (Danio Rerio H) AB strain were collected at 16 cell stage (˜1.5 hours post fertilisation (hpf)) and grown in E3 Medium at 28° C. Embryos were treated with Zoledronate (1 μM) and/or FOH, GGOH at 24 hpf. DNA damage was induced by exposure to ^137Cs Gamma source at 48 hpf and after irradiation the embryo tails were amputated and the embryos were then incubated at 28° C. for a further 12 hrs in the presence of the chemicals. At the end of this period the chemicals were washed off and the embryos were incubated in fresh medium with no chemicals. The embryos were grown up to 120 hpf, following which they were fixed in 4% PFA overnight and then mounted in 100% glycerol. The tail lengths of embryos were measured taking the anal region as starting reference point and the end of the fin fold as the ending point of measurement.

## O=P(O)(O)C(O)(Cn1ccnc1)P(=O)(O)O [Zoledronate]
[1]
  levels of DNA damage (γH2AX foci) in murine tissues: decreased levels of DNA damage
[2]
  DNA repair capacity (γH2AX foci): does not enhance the DNA repair capacity
[3]
  number of γH2AX DNA damage foci: No significant difference
[4]
  DNA repair ability following irradiation (γH2AX foci): enhances DNA repair ability
[5]
  lifespan of normal human dermal fibroblasts: extends lifespan
[5]; human dermal fibroblasts in presence of Zol, PBS cultures senesced after 17-21 PDs, n=3
  population doublings after which cultures were still proliferating: 27-34 PDs
[6]; hMSC at passage 8, not irradiated, versus PBS control
  number of clonogenic progenitors (CFU-F): significant increase; also recorded: higher clonogenic ability
[6]; hMSC irradiated at 1, 3 and 5Gy versus non irradiated, in presence of Zol
  number of CFU-F after irradiation (clonogenic ability): no significant difference; also recorded: complete rescue of the clonogenic ability
[7]; 1Gy irradiation, Zol 1 μM, FIG. 6
  regeneration of the caudal fin at 120 hpf: enhances tail regeneration
[7]; 1 and 3 Gy irradiation (data not shown)
  regeneration of the caudal fin at 120 hpf: same outcome
[7]; 5 Gy irradiation, Zol 1 μM, n=15/group
  regeneration of the caudal fin at 120 hpf: enhances tail regeneration
[7]; 5 Gy irradiation, Zol 1 μM, n=15/group, listed as Zol
  regeneration of the caudal fin at 120 hpf: rescued
